From paper PMC3466212, “Novel AChE Inhibitors for Sustainable Insecticide Resistance Management” (PLoS ONE, 2012) come the findings set out here.

Like-named read-outs stand apart in the source and are kept apart here.

One series addresses WT AChE1 (Culex pipiens, UniProt Q86GC8). The series is described as follows: AChE assay (Ellman), dose-response on recombinant WT AChE1. Also on record: made in house; host or cells: Drosophila S2 cells. It counts as biochemical. On the procedure:
(§1) Production of C. pipiens WT and mutated AChE1s in Drosophila S2 cells was already described. The chemical library (ChemBridge, 3,000 compounds) screening was performed in duplicate on G119S recombinant AChE1. Chemicals were made soluble in ethanol or dimethylsulphoxide (DMSO), and then diluted at 300 µM in ethanol for storage. Compounds (30 µM final concentration) were incubated for 15 min at room temperature with 100 µl of G119S recombinant AChE1 then 100 µl of substrate (acetylthiocholine, 1.6 mM, Sigma-Aldrich) was added and the residual activity was quantified by measuring the optical density at 412 nm, as described by Ellman et al.. PTF analogs were analyzed in dose-response experiments (10-fold serial dilutions from 3 mM to 30 nM), using recombinant WT and G119S AChE1 or mosquito head extracts (heads cut from frozen mosquitoes, homogenized in 400 µl PB containing 1% Triton X-100 and cleared by centrifugation at 9,000×g for 3 min). Depending on compound availability, two to five replicates were performed with distinct batches of enzyme. […] IC50 was estimated by nonlinear least square regression. IC50 was also measured on AChE1 from susceptible and resistant mosquito larvae extracts.

For series [1], the system named is C. pipiens SR strain larvae. The series is described as follows: Larval bioassay, SR strain (OP-resistant). As to conditions: for Mortality at 300 µM, SR: fourth-instar larvae, 24 hours exposure; for mortality at 300 µM: Culex pipiens, 24 h, read-out: Mortality at 300 µM, SR. From the text: (§2) Three C. pipiens strains were used: the susceptible reference Slab strain, homozygous for ace-1 ^S [39], the resistant reference SR strain, carrying the genetical background of Slab but homozygous for the G119S mutation, allele ace-1 ^R [21] and the Ducos strain, carrying the genetical background of Slab but homozygous for an ace-1 duplication, with one ace-1^S and ace-1^R copy in tandem. Culex pipiens heterozygous larvae (Slab×SR) were obtained by crossing Slab males and SR females.
Insecticidal activity was determined by performing bioassays on fourth-instar larvae as described in [42]. Each compound was dissolved in ethanol. Propoxur (CX) and chlorpyrifos (OP) were used as references. For each compound, we first tested mortality after a 24-hour exposure at 300 µM. […] Mortality data were analyzed by the log-probit program.

The target of another series is T1, G119S AChE1 (Culex pipiens, UniProt Q86GC8, G247S).
T1 construct: made in house; host or cells: Drosophila S2 cells
The series is described as follows: biochemical. It counts as biochemical. As to the method:
as §1, with “Compounds (30 µM final concentration) were incubated for 15 min at room temperature with 100 µl of G119S recombinant AChE1 then 100 µl of substrate (acetylthiocholine, 1.6 mM, Sigma-Aldrich) was added and the residual activity was quantified by measuring the optical density at 412 nm, as described by Ellman et al..” left out

For series [2], the system named is C. pipiens Slab strain larvae. The series is described as follows: Larval bioassay, Slab strain (OP-susceptible). As to conditions: for Mortality at 300 µM, Slab: fourth-instar larvae, 24 hours exposure; for mortality at 300 µM: Culex pipiens, 24 h, read-out: Mortality at 300 µM, Slab.
Text: as §2, with “females. Two A. gambiae reference strains (S molecular form) were used: the susceptible strain Kisumu, homozygous for ace-1 ^S, collected in Kenya in 1953 and maintained since then under laboratory conditions and the resistant Acerkis strain, carrying the genetical background of Kisumu but homozygous for an ace-1^R allele from a population collected in Bobo-Dioulasso, Burkina Faso [41].” for “females.”
Insecticidal activity was determined by performing bioassays on fourth-instar larvae as described in [42]. Each compound was dissolved in ethanol. Propoxur (CX) and chlorpyrifos (OP) were used as references. For each compound, we first tested mortality after a 24-hour exposure at 300 µM. […] Mortality data were analyzed by the log-probit program. This program takes into account natural mortality and provides lethal doses (LD) and slopes for each mortality line; it also computes resistance ratios (RR) for each LD, with 95% confidence intervals.

Setting [3] is: recombinant wild-type C. pipiens AChE1, 15 min incubation, acetylthiocholine, read-out: IC50 WT.
[4] abbreviates: recombinant OP-insensitive G119S C. pipiens AChE1, 15 min incubation, acetylthiocholine, read-out: IC50 G119S.

As to `COc1ccc(N2C(=O)C(=Cc3ccc(C)o3)C(=O)NC2=S)cc1` [PTF-27], the IC50 on WT AChE1 (setting [3]) is 1.7 µM; at G119S AChE1 (setting [4]), 5.9 µM. Also, the “Mortality at 300 µM, SR” value in series [1] was 15%. Moreover, in series [2], the “Mortality at 300 µM, Slab” value is listed as 12%.
The matching figures for `CCc1ccc(N2C(=O)NC(=O)C(=Cc3ccc(C)o3)C2=O)cc1` [PTF-8]: 312 µM, 19 µM, 100% and 60%.
The matching figures for `Cc1ccc(C=C2C(=O)NC(=S)N(c3ccc(Br)cc3)C2=O)o1` [PTF-37]: 2120 µM, 142 µM, 35% and 0%.
On to `CN1C(=O)C(=Cc2ccc(-c3cccc(C(=O)O)c3)o2)C(=O)N(C)C1=O` [PTF-44], for which the IC50 at WT AChE1 (setting [3]) and at G119S AChE1 (setting [4]) was 0.6 µM in each case. In addition, the “Mortality at 300 µM, SR” value in series [1] amounted to 0%. The “Mortality at 300 µM, Slab” value in series [2] turned out to be 0%.
For the compound `Cc1ccc(N2C(=O)NC(=O)C(=Cc3ccc(C)o3)C2=O)cc1` [PTF-4], the values for the IC50 on WT AChE1 (setting [3]) and at G119S AChE1 (setting [4]) were 111 µM and 14 µM, respectively. The “Mortality at 300 µM, SR” value in series [1] worked out at 100%. Moreover, the “Mortality at 300 µM, Slab” value in series [2] was determined as 78%.
The matching figures for `Cc1ccc(C=C2C(=O)NC(=S)N(c3ccc(Cl)cc3)C2=O)o1` [PTF-35]: 8.7 µM, 8.7 µM, 49% and 5%.
The corresponding values for `COc1cccc(N2C(=O)NC(=O)C(=Cc3ccc(C)o3)C2=O)c1` [PTF-12] are 54 µM, 6 µM, 88% and 46%.
The matching figures for `COc1ccccc1N1C(=O)NC(=O)C(=Cc2ccc(C)o2)C1=O` [PTF-11]: 1.3 µM, 1 µM, 0% and 0%.
Turning to `Cc1ccc(C=C2C(=O)NC(=O)N(c3cccc(Br)c3)C2=O)o1` [PTF-22], the IC50 was 1.5 µM at WT AChE1 (setting [3]) and 1.9 µM on G119S AChE1 (setting [4]). Moreover, the “Mortality at 300 µM, SR” value in series [1] is reported as 97%. Also, the “Mortality at 300 µM, Slab” value in series [2] is on record as 68%.
For the compound `CN1C(=O)C(=Cc2ccc(-c3ccccc3C(=O)O)o2)C(=O)N(C)C1=O` [PTF-43], the half-maximal inhibitory concentration (IC50) stood at 6.7 µM on WT AChE1 (setting [3]) and 8.3 µM at G119S AChE1 (setting [4]). The “Mortality at 300 µM, SR” value in series [1] is given as 0%. Further, the “Mortality at 300 µM, Slab” value in series [2] came out at 0%.
In the case of `COP(=O)(OC)OC=C(Cl)Cl` [Dichlorvos, reference compound], the IC50 was 0.45 µM on WT AChE1 and 2 µM on G119S AChE1. In addition, the mortality at 300 µM in series [1] and in series [2] was 100% throughout.
As to `O=C1NC(=O)N(c2ccccc2)C(=O)C1=Cc1ccc(-c2cccc(C(=O)O)c2)s1` [PTF-69], the IC50 on WT AChE1 (setting [3]) stood at 43.9 µM; at G119S AChE1 (setting [4]), 4.6 µM. The “Mortality at 300 µM, SR” value in series [1] is 0%. The “Mortality at 300 µM, Slab” value in series [2] amounted to 0%.
Consider `CN1C(=O)C(=Cc2ccc(N3CCCCC3)o2)C(=O)N(C)C1=O` [PTF-49], for which the half-inhibitory concentration (IC50) on WT AChE1 (setting [3]) is 97 µM; on G119S AChE1 (setting [4]), 65.5 µM. Moreover, the “Mortality at 300 µM, SR” value in series [1] was 0%. The “Mortality at 300 µM, Slab” value in series [2] is recorded as 13%.
In the case of `CCOP(=O)(OCC)Oc1nc(Cl)c(Cl)cc1Cl` [Chlorpyrifos-oxon, reference compound], the “Mortality at 300 µM, SR” value in series [1] worked out at 100%. In addition, the “Mortality at 300 µM, Slab” value in series [2] was 100%.
With `Nc1c2c(nc3ccccc13)CCCC2` [Tacrine, reference compound], the results for the mortality at 300 µM in series [1] and in series [2] were 95% and 85%, respectively.
Regarding `CCOP(=O)(OCC)Oc1ccc([N+](=O)[O-])cc1` [Paraoxon, reference compound], in series [1], the “Mortality at 300 µM, SR” value amounted to 100%. Also, in series [2], the “Mortality at 300 µM, Slab” value is given as 100%.
